Three compounds from US9889093B2, “Application of andrographolide in the preparation of a pharmaceutical for treatment of inflammatory bowel disease, andrographolide enteric targeting micropellet, and method for preparation thereof” (TASLY PHARMACEUTICAL GROUP CO., LTD., priority 2013, dated 2018) can be followed below.

Marks after values point to notes of the source that are not given here.

Common to all, as to assay type: in vivo
Assay [1] concerns zebra fish Crohn's disease model. Put plainly: Zebra fish Crohn's disease model (TNBS), efficacy. The note with it: intestinal tissue; prednisolone 10 μM; x ± SE, n = 10.
The subject of the next assay is TNBS-induced UC rats. In words: TNBS-induced UC rat model, different administration routes. An excerpt:
4 Dose Designing and Grouping • 4.1 Grouping: quarantine-qualified 84 rats were all used for making UC model. The successful rats were randomly divided into 6 groups: the model control group, the positive control group, the andrographolide low-dose intragastric group, the andrographolide high-dose intragastric group, the andrographolide low-dose intracolonical group and the andrographolide high-dose intracolonical group, 14 rats per group. • 4.2 Dose: the same doses were adopted in both intragastric and intracolonical groups. Animals were not treated in the model control group, the positive control group (mesalazine enteric tablet, 420 mg·kg^−1·d^−1), the andrographolide low-dose intragastric group (30 mg·kg^−1·d^−1), the andrographolide high-dose intragastric group (90 mg·kg^−1·d^−1), the andrographolide low-dose intracolonical group (30 mg·kg^−1·d^−1) and the andrographolide high-dose intracolonical group (90 mg·kg^−1·d^−1).
5. Method • 5.1 Method of making UC model: the rats were anesthetized. 2 mm-diameter latex tube was gently inserted into the position about 8 cm inside the body of the rats through anus, and TNBS in 50% ethanol solution (TNBS 125 mg/kg) was injected into intestinal lumen with an injector by one time, 0.5 ml/rat. The tail of the rat was lifted up for 30 s to make the model making agent (i.e., TNBS) fully infiltrate into the intestinal lumen of the rats. • 5.2 Method of administration: the same dose (1 mL/100 g) was adopted in both intragastric and intracolonical administration, once daily for consecutive 5 days. • 5.3 Method for sampling in experiment: 2 hours after the last administration, the rats were killed by cervical vertebra dislocation and abdomen was opened to separate the colon. Along mesenteric side, the intestinal lumen was cut and rinsed with 4° C. normal saline and spread on a plastic plate. • 5.4 Scoring method for colon gross morphological injury was referred to scoring method for mucosal injury (Bjelkengren G, Aronsen K F, Augustsson N E, etc. Radioprotective effect of local administration of lysine vasopressin and triglycyl lysine vasopressin on the rectal mucosa in rats[J]. Acta Oncol, 1995, 34(4):487-92) to record the mucosal injury score: dotted line blooding and small red spots (<1 mm): 1 score, piece blooding and big red spots (=1 mm): 3 score; and erosion and ulcer: 5 score.
(§1) Data were expressed as mean+standard deviation (x±S). All numerical variables were analyzed with SPSS13.0 software by one-way ANOVA. T-test analysis was used for inter-group comparison.

The next assay deals with DSS-induced UC mice. In words: DSS-induced UC mouse model, disease active index. The note with it: mesalazine enteric tablet 227.5 mg/kg/d.
Description: 4 Dose Designing and Grouping • 4.1 Grouping: quarantine-qualified 84 mice were randomly divided into 6 groups: the model control group, the positive control group, the tested drug low-dose intragastric group, the tested drug high-dose intragastric group, the tested drug low-dose intracolonical group and the tested drug high-dose intracolonical group, 14 mice per group. All animals drank 5% DSS solution daily for consecutive 14 days to establish UC model. Animals were administrated with the drug for treatment on the 2nd day after being given 5% DSS drinking water. • 4.2 Dose: in this study, dose of administration of the mice in all groups was designed on the basis of client's requirements, and the same doses were adopted in both intragastric and intracolonical groups. Animals were not treated in the model control group, the positive control group (mesalazine enteric tablet, 227.5 mg·kg^−1·d^−1), the andrographolide low-dose intragastric group (60 mg·kg^1·d^−1), the andrographolide high-dose intragastric group (180 mg·kg^−1·d^−1), the andrographolide low-dose intracolonical group (60 mg·kg^−1·d^−1) and the andrographolide high-dose intracolonical group (180 mg·kg^−1·d^−1).
5 Method • 5.1 Method of making UC model: all animals drank 5% DSS solution daily for consecutive 14 days. • 5.2 Method of administration: on the 2nd day after modeling, the mice were treated intragastrically or intracolonically with the drug at 1 mL/100 g once a day for consecutive 14 days. • 5.3 Method for sampling in experiment: 2 hours after the last administration, the mice were killed by cervical vertebra dislocation and abdomen was opened to separate the colon. Along mesenteric side, the intestinal lumen was cut and rinsed with 4° C. normal saline and spread on a plastic plate. • 5.4 Method for evaluating disease active index (DAI): the disease active index was assessed at the 7th and 14th day after administration. The method was presented together with the following three parameters: the body weight loss percentages (unchanged BW: 0 score, 1˜5: 1 score, 5˜10: 2 score, 10˜15: 3 score, more than 15: 4 score), stool viscosity (normal stool: 0 score, loosen stool: 2 score, diarrhea: 4 score) and blood stool (normal stool: 0 score, occult blood stool: 2 score and positive blood stool: 4 score). Total score of three parameters was divided by 3 to give the DAI, namely DAI=(BW index score+stool character score+stool blood score)/3.
6 Observation Indices • 6.1 Observation: the general clinical symptoms in the mice were observed daily from the beginning to the end of the experiment, and the stool, mental status and death status were recorded. • 6.2 Body weight: BW was recorded weekly from the beginning to the end of the experiment. • 6.3 Calculation of DAI: DAI was calculated on the 7th and 14th day after administration so as to assess disease activity. • 6.4 The colon mucosal tissue 8˜10 cm away from the anus was sampled, embedded with paraffin and stained with routine HE. Colon mucosal injury was observed by a microscope and histological injury was scored based on the following indices: ulcer inflammatory granuloma, fibrosis and pathological degree.
as §1

For assay [2], the system named is TNBS-induced colitis mice. Put plainly: TNBS-induced UC (colitis) mouse model. The method, then: 5% (w/v) TNBS solution was diluted with double-distilled water and mixed with 50% (v/v) ethanol in equal volume to have 1.5% (w/v) TNBS solution. In the model control group, the mice were anesthetized with 1 wt % pentobarbital solution at a dose of 0.05 ml/10 g body weight. After being anesthetized, the mice were administrated with 1.5% (w/v) TNBS solution at a dose of 0.1 ml/mouse by gently inserting stomach perfusion device to about 3 cm depth via anus and arriving at the colon, and the IBD was induced. In the saline group, the saline was gently injected into the colon at a dose of 0.1 ml/mouse. In the normal control group, 50% (v/v) ethanol was gently injected into the colon at a dose of 0.1 ml mouse.
After one week adaptive feeding, all animals were randomly divided into 5 groups according to body weight, 10 mice in one group: the normal control group, the model control group, the andrographolide low-dose group (20 mg/kg/d), the andrographolide high-dose group (40 mg/kg/d) and the positive control group (Sulfasalazine group, 300 mg/kg/d). Two hours after making model, the animals in each treating groups were orally administrated twice daily with the andrographolide and once daily in the positive control group. After successive administration for 7 days, the abdomen was opened 24 hours after the last administration to observe adhesion degree between the colon and other organs. The colon was separated and weighed.
1. Body weight: after making model, body weight was measured every day to observe the change in the animals.
2. Evaluation of inflammation: the abdomen was opened 24 hours after the last administration to observe adhesion degree between the colon and other organs. Every segment of the colon was taken out and weighed to calculate the percentage of the colon weight to body weight, as the colon index. The formula was presented as follows: Decrease rate of colon specific weight=(colon index of the model control group−colon index of the treatment group)/colon index of the model control group×100%
3. Histopathological examination: a part of the colon was taken to prepare the pathological section, and the standard for score was as follows: • 0 score, no inflammatory symptoms; • 1 score, low-grade inflammation with no structure change; • 2 score, low-grade leukocyte infiltration; • 3 score, high-grade leukocyte infiltration, high vascular density, crypt extension, thickened colon wall and superficial ulcer • 4 score, high-grade leukocyte infiltrating exceeding to mucous layer, crypt extension, decrease of goblet cell, high vascular density, thickened colon wall and extensive ulcer
SPSS11.5 software was used for analysis and the data were expressed as x±S. Variance analysis was used for comparison of significant difference among groups.

[3] abbreviates: mesalazine enteric tablet 420 mg/kg, once daily 5 days.
Where [4] appears, read: sulfasalazine 300 mg/kg/d, once daily, 7 days.

As to `C[C@]12C=CC(=O)C=C1CC[C@@H]1[C@@H]2[C@@H](O)C[C@@]2(C)[C@H]1CC[C@]2(O)C(=O)CO` [prednisolone, reference compound], the “Number of Neutrophil” value in assay [1] stood at 14 ± 0.60.

On to `Nc1ccc(O)c(C(=O)O)c1` [Positive control group, mesalazine, reference compound], for which, in the assay on TNBS-induced UC rats (setting [3]), the “Gross morphological injury score” value was determined as 3.16 ± 1.97 and the Ulcer ratio was 35.45* %. In addition, the “Formless watery stool symptoms, course” value in the assay on TNBS-induced UC rats (positive control group 420 mg/kg) is given as “most of watery stool symptoms disappeared in the rats on the 5th˜6th days”. In the assay with DSS-induced UC mice, the “DAI on the 7th day” value amounted to 1.31 ± 0.14 and the “DAI on the 14th day” value was found to be 1.10 ± 0.55.

For `O=C(O)c1cc(/N=N/c2ccc(S(=O)(=O)Nc3ccccn3)cc2)ccc1O` [Sulfasalazine, reference compound], the “Body weight increase compared with the model control group” value in assay [2] (FIG. 1, treated groups) was “increased faster than that in the model control group”. Also, the Colon scores in assay [2] (histopathological score 0-4, sulfasalazine 300 mg/kg/d, 7 days) was 2.8*. The Colon indices in assay [2] (percentage of colon weight to body weight, sulfasalazine 300 mg/kg/d, 7 days) came to 1.75 ± 0.43. In assay [2] (setting [4]), the Body weight amounted to 19.13 ± 0.99 g and the Colon weight turned out to be 0.33 ± 0.06 g. In addition, in assay [2] (treated groups, after 7 days), the “Intestinal elasticity compared with the model control group” value is on record as “higher than that in the model control group”. Moreover, in assay [2] (vs model control group, sulfasalazine 300 mg/kg/d, 7 days), the “Decrease rate of colon specific weight” value worked out at 47.87%.
